In ChEMBL document CHEMBL3407379, “Novel sesquiterpenes from Schisandra grandiflora: isolation, cytotoxic activity and synthesis of their triazole derivatives using "click" reaction” (Eur J Med Chem, 2015):

Experiments:
HeLa = experiment: Cytotoxicity against human HeLa cells assessed as cell viability after 48 hrs by MTT assay; assay type: functional, cell-based
A549 = experiment: Cytotoxicity against human A549 cells assessed as cell viability after 48 hrs by MTT assay; assay type: functional, cell-based; details: A549, 48 h
DU-145 = experiment: Cytotoxicity against human DU145 cells assessed as cell viability after 48 hrs by MTT assay; assay type: functional, cell-based; details: DU-145, 48 h
MCF7 = experiment: Cytotoxicity against human MCF7 cells assessed as cell viability after 48 hrs by MTT assay; assay type: functional, cell-based; details: MCF7, 48 h
B16 = experiment: Cytotoxicity against mouse B16 cells assessed as cell viability after 48 hrs by MTT assay; assay type: functional, cell-based; details: B16, 48 h
HEK293 = experiment: Cytotoxicity against HEK293 cells assessed as cell viability after 48 hrs by MTT assay; assay type: cell-based; details: Homo sapiens, HEK293, 48 h

Structure (SMILES) | IC50 (HeLa) [µM] | IC50 (A549) [µM] | IC50 (DU-145) [µM] | IC50 (MCF7) [µM] | IC50 (B16) [µM] | IC50 (HEK293) [µM]
C=C1CC[C@@H](C(C)C)[C@]12CC=C(C=O)CC2 | 269 | 170 | 165 | 210 | 428 | 550
COc1cccc2c1C(=O)c1c(O)c3c(c(O)c1C2=O)C[C@@](O)(C(=O)CO)C[C@@H]3O[C@H]1C[C@H](N)[C@H](O)[C@H](C)O1 [DOXORUBICIN] | 3.57 | – | 5.3 | 2.24 | 2.78 | –
C#CC1=CC[C@]2(CC1)C(=C)CC[C@H]2C(C)C | 97.6 | 103 | 121 | 135 | 123 | 740
C=C1CCC[C@]2(C)CCC(c3cn(-c4cc(OC)c(OC)cc4OC)nn3)=CC[C@@]12C | 45 | 32.6 | 49.4 | 41.1 | 47.2 | 334
C=C1CCC[C@]2(C)CCC(c3cn(-c4ccccc4C(C)=O)nn3)=CC[C@@]12C | 55.7 | 37.6 | 48.5 | 29.9 | 42.2 | 524
CC1(C)CCCC2=CC=C(C=O)CC[C@]21C | 163 | 138 | 191 | 166 | 145 | 696
C=C1CCC[C@]2(C)CCC(c3cn(-c4ccc(I)cc4)nn3)=CC[C@@]12C | 144 | 137 | 145 | 162 | 144 | 215
C=C1CCC[C@]2(C)CCC(C=O)=CC[C@@]12C | 190 | 145 | 152 | 319 | 230 | 734
C=C1CCC[C@]2(C)CCC(c3cn(-c4ccc(C)cc4)nn3)=CC[C@@]12C | 69.1 | 58.8 | 132 | 54.9 | 57.6 | 524
C=C1CC[C@@H](C(C)C)[C@]12CC=C(c1cn(CC(=O)Nc3ccc(C)cc3)nn1)CC2 | 54.1 | 31.7 | 44.5 | 142 | 195 | 303
C=C1CC[C@@H](C(C)C)[C@]12CC=C(c1cn(-c3ccc(OC)cc3)nn1)CC2 | 54.9 | 43.6 | 65.1 | 63.1 | 107 | 388
C=C1CCC[C@]2(C)CCC(c3cn(-c4ccc(OC)cc4)nn3)=CC[C@@]12C | 43.6 | 34.6 | 58.9 | 118 | 209 | 410
C=C1CCC[C@]2(C)CCC(c3cn(-c4ccc(Cl)cc4)nn3)=CC[C@@]12C | 18.8 | 20.1 | 26 | 35.1 | 27.2 | 609
CC1(C)CCC[C@]1(C)c1ccc(C=O)cc1 | 252 | 216 | 260 | 202 | 257 | 771
C#CC1=CC[C@@]2(C)C(=C)CCC[C@]2(C)CC1 | 158 | 148 | 386 | 575 | 507 | 524
C=C1CC[C@@H](C(C)C)[C@]12CC=C(c1cn(-c3cc(OC)c(OC)cc3OC)nn1)CC2 | 37.4 | 20.5 | 29.7 | 44 | 29.1 | 509
C=C1CCC[C@]2(C)CCC(c3cn(-c4cccc([N+](=O)[O-])c4)nn3)=CC[C@@]12C | 31.9 | 24.7 | 62.5 | 40.3 | 31.7 | 699
C=C1CCC[C@]2(C)CCC(c3cn(-c4ccc(C(C)=O)cc4)nn3)=CC[C@@]12C | 15.1 | 46.4 | 51.7 | 65.4 | 61 | 520
C=C1CCC[C@]2(C)CCC(c3cn(-c4cccc(OC)c4)nn3)=CC[C@@]12C | 27.9 | 11.2 | 38.9 | 56.2 | 34.6 | 734
CC1(C)CCCC23C=C[C@](C)(CC[C@@]12C)OO3 | 122 | 94.8 | 114 | 129 | 343 | 480
C=C1CCC[C@]2(C)CCC(c3cn(CC(=O)Nc4ccccc4)nn3)=CC[C@@]12C | 62.9 | 72.2 | 146 | 148 | 148 | 491
C=C1CCC[C@]2(C)CCC(c3cn(CC(=O)Nc4ccc(C)cc4)nn3)=CC[C@@]12C | 131 | 270 | 254 | 80.1 | 210 | 622
